Among the data in ChEMBL document CHEMBL4834484, “Identification of isoform/domain-selective fragments from the selection of DNA-encoded dynamic library” (Bioorg Med Chem, 2021) are IC50, Ki and Kd values, retold here.

For test [1], the target named is T1, NAD-dependent protein deacylase sirtuin-5, mitochondrial (Homo sapiens, UniProt Q9NXA8). The experiment in a line: Inhibition of human recombinant SIRT5 assessed as inhibition of substrate desuccinylation using Fluor de Lys-Succinyl green peptide as substrate in presence of NAD+ measured by fluorometric assay.
Test [2] has as its target T1, NAD-dependent protein deacylase sirtuin-5, mitochondrial. Kind of test: Binding affinity to chip-immobilized recombinant human SIRT5 measured after 300 secs by surface plasmon resonance method. For orientation: Surface plasmon resonance follows binding to a sensor surface in real time, without labels.

T1 sequence (Q9NXA8 whole entry): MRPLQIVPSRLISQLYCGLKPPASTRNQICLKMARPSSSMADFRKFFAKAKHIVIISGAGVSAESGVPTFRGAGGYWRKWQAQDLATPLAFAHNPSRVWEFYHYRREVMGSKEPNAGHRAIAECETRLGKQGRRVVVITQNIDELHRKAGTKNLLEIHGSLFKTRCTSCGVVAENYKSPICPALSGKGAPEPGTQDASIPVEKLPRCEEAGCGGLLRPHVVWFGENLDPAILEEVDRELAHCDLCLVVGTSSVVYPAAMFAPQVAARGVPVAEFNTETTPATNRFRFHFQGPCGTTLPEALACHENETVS

Consider `CN(CCCN1c2ccccc2CCc2ccccc21)C(=O)CCCCCNC(=O)C[C@@H](Cc1ccccc1)NC(=O)OC(C)(C)C`, for which, in test [1], the 50% inhibitory concentration (IC50) was determined as 183 µM and the inhibitory constant (Ki) was 122 µM. For the same compound, in test [2], the dissociation constant Kd came out at 2.47 µM.

The IC50 is the concentration at which inhibition is half-maximal. By Ki is commonly meant a dissociation constant, usually derived from enzyme kinetics or from competition with a known ligand. For orientation: Kd means the constant that tells how readily two partners part at equilibrium.
